The target in one data set is Histamine H3 receptor (Homo sapiens, UniProt Q9Y5N1). The experiment in a line: Binding affinity to human histamine H3 receptor.
The target in data set [1] is T1, Histamine H4 receptor (Homo sapiens, UniProt Q9H3N8). Put plainly: Displacement of [3H]histamine from human recombinant histamine H4 receptor expressed in CHO cells coexpressing Ga15 by radioligand filtration binding assay. It counts as cell-based. (In general: Loss of bound radioactivity is the signal in a displacement assay; it reports binding, not function.)
T1 sequence (Q9H3N8 whole entry): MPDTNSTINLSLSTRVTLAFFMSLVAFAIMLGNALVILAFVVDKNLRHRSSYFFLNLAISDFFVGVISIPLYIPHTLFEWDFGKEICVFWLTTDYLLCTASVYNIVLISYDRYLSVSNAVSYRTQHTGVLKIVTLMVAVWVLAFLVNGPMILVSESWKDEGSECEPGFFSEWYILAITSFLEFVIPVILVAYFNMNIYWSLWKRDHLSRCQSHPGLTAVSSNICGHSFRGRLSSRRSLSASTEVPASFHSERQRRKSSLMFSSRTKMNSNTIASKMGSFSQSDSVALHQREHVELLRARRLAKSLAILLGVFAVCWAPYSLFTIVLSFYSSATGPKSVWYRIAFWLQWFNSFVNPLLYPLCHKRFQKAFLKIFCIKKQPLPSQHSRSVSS
The target of data set [2] is T1, Histamine H4 receptor. Put plainly: Antagonist activity at human histamine H4 receptor expressed in HEK293 cells assessed as rev inhibition of forskolin-stimulated cAMP accumulation by CRE-betalactamase reporter gene assay. Format: functional, cell-based. On the technique in general: cAMP levels reflect the balance of adenylyl cyclase and phosphodiesterase activity.

Data set [3] can be described thus: Chemical stability of the compound in methanol. Format: physicochemical.
Data set [4] is described as follows: Metabolic stability in human liver microsomes. It counts as ADME, Microsome. Conditions: read-out: Stability. (Microsomes from liver hold many membrane-bound enzymes, among them those of drug oxidation.)
The nature of data set [5]: Metabolic stability in rat liver microsomes. It counts as ADME, Microsome. The conditions noted are these: read-out: Stability.
A short description of data set [6]: Half life in rat at 10 mg/kg, sc. Format: ADME, organism-based. Further details: dose 10 mg/kg, route subcutaneous. Conditions: in vivo.
In data set [7] the test system is Rattus norvegicus. The experiment in a line: Clearance in rat at 10 mg/kg, sc. It counts as ADME, organism-based. Also noted: dose 10 mg/kg, route subcutaneous. Conditions: in vivo.
The subject of data set [8] is Rattus norvegicus. Put plainly: Volume of distribution in rat at 10 mg/kg, sc. It counts as ADME, organism-based. Also noted: dose 10 mg/kg, route subcutaneous. Conditions: in vivo.
Data set [9] concerns Rattus norvegicus. The experiment in a line: Clearance in rat at 1 mg/kg, iv. It counts as ADME, organism-based. Also noted: dose 1 mg/kg, route intravenous. Conditions: in vivo.
Data set [10] is described as follows: Half life in rat at 1 mg/kg, iv. Format: ADME, organism-based. Further details: dose 1 mg/kg, route intravenous. The conditions noted are these: in vivo.
The nature of data set [11]: Volume of distribution in rat at 1 mg/kg, iv. It counts as ADME, organism-based. Conditions: in vivo. Further details: dose 1 mg/kg, route intravenous.
The nature of data set [12]: Half life in rat. Format: ADME, organism-based. The conditions noted are these: in vivo.
In data set [13] the test system is Rattus norvegicus. The experiment in a line: Volume of distribution in rat at 3 mg/kg, sc. It counts as ADME, organism-based. Further details: dose 3 mg/kg, route subcutaneous. The conditions noted are these: in vivo.
Data set [14] in a line: Half life in rat at 3 mg/kg, sc. Conditions: in vivo. Further details: dose 3 mg/kg, route subcutaneous. It counts as ADME, organism-based.
The nature of data set [15]: Oral bioavailability in rat. Format: ADME, organism-based. Conditions: in vivo.

The results in this text go back to ChEMBL document CHEMBL1938302, “Synthesis of novel histamine H4 receptor antagonists” (Bioorg Med Chem Lett, 2012).

Structures are written as SMILES. pKi: −log10 of the molar value. Where “and” joins values, the source holds several entries; their conditions need not be identical. Identical values can stand only once. Calls of active or inactive are those of the source.

Chain of Histamine H3 receptor (Q9Y5N1 whole entry): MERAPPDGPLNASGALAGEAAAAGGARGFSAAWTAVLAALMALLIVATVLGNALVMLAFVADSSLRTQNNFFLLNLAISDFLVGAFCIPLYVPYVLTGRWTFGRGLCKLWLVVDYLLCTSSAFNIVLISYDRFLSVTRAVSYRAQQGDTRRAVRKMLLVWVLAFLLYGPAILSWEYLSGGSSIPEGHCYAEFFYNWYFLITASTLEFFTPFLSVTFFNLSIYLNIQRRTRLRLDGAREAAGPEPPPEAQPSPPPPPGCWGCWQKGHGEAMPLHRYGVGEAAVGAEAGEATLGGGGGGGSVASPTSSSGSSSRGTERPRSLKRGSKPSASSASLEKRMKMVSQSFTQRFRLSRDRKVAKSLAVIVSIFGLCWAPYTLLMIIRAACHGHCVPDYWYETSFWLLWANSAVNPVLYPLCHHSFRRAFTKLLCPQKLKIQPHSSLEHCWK

As usually defined, the pKi is −log10 of the Ki, conventionally taken in molar units. Consider `CN1C[C@@H]2CN(C(=N)c3nc4ccccc4[nH]3)C[C@@H]2C1`, for which the pKi is 5.42 on Histamine H3 receptor, 8.19 on Histamine H4 receptor [1] and 7.91 on Histamine H4 receptor [2]. Further, the Stability result in [3] is “Unstable”.

At Histamine H3 receptor, `CN1C[C@@H]2CN(C(=O)c3cc4cc(Cl)ccc4[nH]3)C[C@@H]2C1` showed a negative-log Ki (pKi) of 5.06. Moreover, the microsomal CLint in [4] is less than 7 µL/min/mg.

Turning to `CN1CCN(C(=O)c2cc3cccnc3[nH]2)CC1`, the pKi was 4.44 on Histamine H3 receptor, 5.51 at Histamine H4 receptor [1] and less than 4.52 on Histamine H4 receptor [2].

With `CN1C[C@@H]2CN(C(=N)c3nc4c(F)c(F)c(F)cc4[nH]3)C[C@@H]2C1`, the values for the negative-log Ki (pKi) on Histamine H3 receptor, at Histamine H4 receptor [1] and at Histamine H4 receptor [2] were less than 4.70, 7.15 and 7.70, respectively. Also, the Stability entry in data set [3] is given as “Unstable”.

For `Cc1c(F)ccc2nc(C(=N)N3C[C@H]4CN(C)C[C@H]4C3)[nH]c12`, the values for the pKi on Histamine H4 receptor [1] and on Histamine H4 receptor [2] were 8.34 and 8.03, respectively. Also, the Stability entry in [3] is given as “Unstable”.

Regarding `CN1C[C@@H]2CN(C(=O)c3nc4ccc(F)c(F)c4[nH]3)C[C@@H]2C1`, the values for the negative logarithm of the Ki (pKi) on Histamine H4 receptor [1] and at Histamine H4 receptor [2] were 7.13 and 6.87, respectively.

Turning to `CN1C[C@@H]2CN(C(=O)c3cc4cc(Cl)cnc4[nH]3)C[C@@H]2C1`, the pKi on Histamine H4 receptor [1] was 7.08.

`CN1C[C@@H]2CN(C(=O)c3nc4cc(Cl)ccc4[nH]3)C[C@@H]2C1`: the results for the microsomal CLint in [4] and in [5] were less than 7 µL/min/mg and 36 µL/min/mg, respectively. Moreover, the pKi on Histamine H4 receptor [1] is 6.89; on Histamine H4 receptor [2] it was 6.66.

Turning to `CN1C[C@@H]2CN(C(=N)c3nc4cc(Cl)ccc4[nH]3)C[C@@H]2C1`, the pKi on Histamine H4 receptor [2] is 7.25. Further, the Stability result in data set [3] is “Unstable”.

The term half-life denotes the time needed for the level to fall by half in the phase considered. Higher therefore signals slow loss. In turn, `CN1CCN(C(=O)c2nc3cc(Cl)ccc3[nH]2)CC1` showed a pKi at Histamine H3 receptor of 4.70. In addition, the microsomal CLint in data set [4] came to 19 µL/min/mg. This molecule also showed a half-life in [6] of 42 min. For the same molecule, in the data set on Rattus norvegicus [7], the clearance turned out to be 700 mL/min/kg. In addition, the Vd with Rattus norvegicus [8] stood at 23 L/kg.

`CN1C[C@@H]2CN(C(=O)c3nc4ccccc4[nH]3)C[C@@H]2C1`: the negative-log Ki (pKi) on Histamine H4 receptor [1] was 6.99; on Histamine H4 receptor [2], 6.72.

Take `CN1C[C@@H]2CN(C(=O)c3cc4ccc(Cl)nc4[nH]3)C[C@@H]2C1`: the pKi at Histamine H4 receptor [1] was 5.68.

Consider `CN1CCN(C(=O)c2cn3ccncc3n2)CC1`, for which the pKi on Histamine H4 receptor [1] was 4.70; at Histamine H4 receptor [2], less than 4.70.

Consider `CN1C[C@@H]2CN(C(=O)c3cc4cccnc4[nH]3)C[C@@H]2C1`, for which the pKi at Histamine H4 receptor [1] is 6.01.

Take `CN1C[C@@H]2CN(C(=N)c3nc4cc(F)ccc4[nH]3)C[C@@H]2C1`: the pKi is 5.92 on Histamine H3 receptor, 8.34 at Histamine H4 receptor [1] and 8.04 at Histamine H4 receptor [2]. Moreover, the Stability entry in data set [3] is recorded as “Unstable”.

Turning to `Clc1ccc2[nH]c(C3=NCCN3)nc2c1`, the inhibition result on Histamine H4 receptor [1] and on Histamine H4 receptor [2] was “inactive” each time. For the same molecule, the Stability result in data set [3] is “Stable”.

Turning to `CN1C[C@@H]2CN(C(=O)c3nc4cc(F)ccc4[nH]3)C[C@@H]2C1`, the pKi on Histamine H3 receptor was 4.81; on Histamine H4 receptor [2], 6.84. In addition, in the data set with Rattus norvegicus [9], the clearance stood at 161 mL/min/kg. Moreover, the microsomal CLint in data set [4] is less than 7 µL/min/mg. In addition, in data set [10], the half-life was 42 min. Further, in data set [11], the Vd came out at 6.1 L/kg.

`CN1C[C@@H]2CN(C(=O)c3nc4cc(F)c(F)cc4[nH]3)C[C@@H]2C1`: the results for the pKi on Histamine H3 receptor and at Histamine H4 receptor [2] were 4.75 and 6.63, respectively. The clearance in the data set on Rattus norvegicus [9] was determined as 58 mL/min/kg. For the same molecule, the microsomal CLint in data set [4] is less than 7 µL/min/mg; in [5], 40 µL/min/mg. In [10], this molecule gave a half-life of 48 min.

On to `CN1CCN(C(=O)c2cc3cc(Cl)ccc3[nH]2)CC1` [JNJ-7777120], for which the pKi on Histamine H3 receptor is 4.82 and < 4.70. Besides, the figures for the half-life in data set [12] and in data set [14] were 42 min and 12 min, respectively. Also, in the data set with Rattus norvegicus [13], the Vd was 2.3 L/kg.

On to `CN1CCN(C(=O)c2cn3cc(Cl)ccc3n2)CC1`, for which the values for the pKi on Histamine H3 receptor, on Histamine H4 receptor [1] and at Histamine H4 receptor [2] were 4.54, 5.50 and less than 4.94, respectively.

With `CN1C[C@@H]2CN(C(=N)c3nc4c(F)c(F)ccc4[nH]3)C[C@@H]2C1`, the pKi at Histamine H4 receptor [1] was 7.31. For the same molecule, the Stability result in data set [3] is “Unstable”.

For the molecule `CC(C)N1C[C@H]2CN(C(=O)c3nc4cc(Cl)ccc4[nH]3)C[C@H]2C1`, the pKi on Histamine H4 receptor [1] is 5.57; on Histamine H4 receptor [2] it was 5.35.

On to `CN1C[C@@H]2CN3C(c4nc5cc(F)c(F)cc5[nH]4)=NC[C@H]3[C@@H]2C1`, for which the inhibition result at Histamine H4 receptor [1] and at Histamine H4 receptor [2] was “inactive” each time. Moreover, the Stability result in data set [3] is reported as “Stable”.

In the case of `Cc1c(F)ccc2nc(C(=O)N3C[C@H]4CN(C)C[C@H]4C3)[nH]c12`, the microsomal CLint in data set [4] was less than 7 µL/min/mg; in data set [5], 214 µL/min/mg. In addition, the results for the pKi on Histamine H4 receptor [1] and at Histamine H4 receptor [2] were 7.28 and 7.01, respectively.

Regarding `CCN1C[C@@H]2CN(C(=O)c3nc4cc(Cl)ccc4[nH]3)C[C@@H]2C1`, the pKi is 5.71 at Histamine H4 receptor [1] and 5.48 on Histamine H4 receptor [2].

Broadly, the bioavailability is dose-corrected exposure relative to a reference, in per cent. For `CN1C[C@@H]2CN(C(=N)c3nc4cc(F)c(F)cc4[nH]3)C[C@@H]2C1`, the pKi on Histamine H3 receptor was 5.51; at Histamine H4 receptor [1] it was 8.02; on Histamine H4 receptor [2], 7.76. In the data set with Rattus norvegicus [9], this molecule displayed a clearance of 31 mL/min/kg. Further, in data set [4], the microsomal CLint is less than 7 µL/min/mg. The half-life in data set [10] was 660 min. Further, in [11], the Vd was found to be 48 L/kg. In addition, the bioavailability in data set [15] was found to be 20%. Moreover, the Stability entry in data set [3] is reported as “Unstable”.

Take `O=C(c1nc2cc(Cl)ccc2[nH]1)N1C[C@H]2CNC[C@H]2C1`: the values for the pKi at Histamine H4 receptor [1] and on Histamine H4 receptor [2] were 5.29 and 5.09, respectively.
